Values quoted from earlier work as cited in US7383946B2 (priority 2004, dated 2008).

Compound: [O][Cl+][O-] [Chlorine dioxide, chlorine dioxide]
- concentration at which chlorine dioxide is stable in water and aqueous solutions: approximately 10 g/L
